Consider 16 compounds from patent US20100105652A1, “PURINES AS CYSTEINE PROTEASE INHIBITORS” (Glaxo Group Limited, priority 2007, published 2010).

pIC50: −log10 of the molar value. Counter-ions that a name gives are not always drawn.

Experiment [1] relates to Plasmodium falciparum parasite. In words: whole cell activity against the Plasmodium falciparum parasite. It counts as cell-based. An excerpt:
Equation 7 describes the apparent KI for competitive compounds and was substituted into equations 5 and 6 to generate the relevant binding constants from the fitting routine. In addition, the initial and final velocities were fit to equation 3 to further define the binding mechanism and potency. A complete discussion of this kinetic treatment has been fully described (Morrison et al., Adv. Enzymol. Relat. Areas Mol. Biol., 1988, 61, 201). 2) Determination of Whole Cell Activity Against the Plasmodium falciparum Parasite Compounds can be evaluated for whole cell activity against the Plasmodium falciparum parasite according to the procedure described in Sijwali S, and Rosenthal P. J., (2004) Proceedings of the National Academy of Sciences of the United States of America (PNAS) 101(13), 4384-4389 (see in particular “Measurement of Parasite Growth rates and Inhibitor Sensitivity” on page 4385); IC50 values can be calculated as described in Singh A. and Rosenthal P. J., (2001) Antimicrobial Agents and Chemotherapy 45(3), 949-951 (see in particular page 950, first column); synchronised parasites can be prepared as described in Divo A. A. et al., (1985) Protozool. 32, 59-64.

The target of the next experiment is T1, Falcipain-2 (Plasmodium falciparum, UniProt Q8I6U4).
T1 sequence (Q8I6U4 244-484): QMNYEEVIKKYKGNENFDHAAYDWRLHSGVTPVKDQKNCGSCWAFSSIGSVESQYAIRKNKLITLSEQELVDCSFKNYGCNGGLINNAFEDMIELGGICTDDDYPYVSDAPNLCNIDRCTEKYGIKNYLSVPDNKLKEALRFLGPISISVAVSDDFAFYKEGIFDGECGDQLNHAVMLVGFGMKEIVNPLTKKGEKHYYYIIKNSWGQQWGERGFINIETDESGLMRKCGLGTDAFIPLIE
In words: falcipain-2 enzymatic assay (fluorogenic substrate H-D-VLR-AFC, endpoint). It counts as biochemical. The conditions noted are these: parasitic recombinant enzyme, pH 5.5, quenched after 60 minutes. The procedure: (§1) 1) Determination of Falcipain-2, Falcipain-3, Vivapain-2, and Cathepsin S Proteolytic Catalytic Activity
(§2) Assays for Falcipain-2, Falcipain-3, and Vivapain-2 are carried out with parasitic recombinant enzymes. Cathepsins S is carried out with human recombinant enzymes. Standard assay conditions for the determination of kinetic constants used a fluorogenic peptide substrate, typically H-D-VLR-AFC (Falcipain-2, Falcipain-3, Vivapain-2) or KQKLR-AMC (Cathepsin S) and are determined in 100 mM sodium acetate, pH 5.5, containing 10 mM DTT and 0.5 mM CHAPS (Falcipain-2, Falcipain-3, Vivapain-2), or 50 mM MES, pH 6.5, containing 0.5 mM CHAPS, 10 mM L-CYS, 5 mM EDTA (Cathepsin S). Stock substrate solutions are prepared at 20 mM in DMSO. The activity assays contained 30 uM substrate (Falcipain-2, Falcipain-3, Vivapain-2), and 30 uM substrate (Cathepsin S). All assays contained 1% DMSO. […] All assays are conducted at ambient temperature as end point assays being quenched after 60 minutes with the exception of Cathepsin S at 90 minutes, with 16.6 uM E-64 in 1% DMSO. Product formation (AFC or AMC) is determined from fluorescence (excitation at 405 nm; emission at 530 nm, AFC, or excitation at 360 nm; emission at 460 nm, AMC) monitored with a LJL Aquest (Molecular Devices) fluorescent plate reader. In the case of kinetic reads (used in mechanism of action studies), the reaction is not quenched but is read in the plate reader every 3 minutes for approximately 90 minutes. In addition, the mechanism of action studies for Falcipain-2 utilize Z-LR-AMC as the substrate. Product formation is determined from the fluorescence of AMC, measured with a LJL Acquest (Molecular Devices) fluorescent plate reader (excitation at 360 nm; emission at 460 nm).
(§3) Potential inhibitors are evaluated using the quenched read (endpoint) method. Assays are carried out in the presence of variable concentrations of test compound. Reactions are initiated by addition of enzyme and substrate to wells containing inhibitor stamped in 100% DMSO. For endpoint assays, the reaction is quenched with the addition of E64. Dose response data is fit to an IC50 curve with preset fitting tools according to equation 1:
(§4) y=a+(b−a)/(1+(10^X/10^C)^d) (1)
(§5) where y is the response at a particular inhibitor concentration x, a is the minimum response value, b is the maximum response value, c is the IC50, and d is the slope of the IC50 curve. Assuming the compound is a competitive inhibitor, the apparent KI can be calculated from IC50, as shown in equation 2: […]

For the next experiment, the target named is T2, Falcipain-3 (Plasmodium falciparum, UniProt Q8IIL0).
T2 sequence (Q8IIL0 243-492): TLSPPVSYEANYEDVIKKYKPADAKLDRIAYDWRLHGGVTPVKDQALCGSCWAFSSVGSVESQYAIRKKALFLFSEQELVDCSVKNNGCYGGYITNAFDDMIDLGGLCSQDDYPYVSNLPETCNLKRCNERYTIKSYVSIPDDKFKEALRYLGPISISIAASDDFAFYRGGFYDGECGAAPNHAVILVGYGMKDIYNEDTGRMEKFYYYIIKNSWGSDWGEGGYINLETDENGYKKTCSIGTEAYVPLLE
The experiment can be described thus: falcipain-3 enzymatic assay (fluorogenic substrate H-D-VLR-AFC, endpoint). The conditions noted are these: parasitic recombinant enzyme, pH 5.5, quenched after 60 minutes. Format: biochemical. How it is done:
as §1, §2, §3, §4, §5

As for `CN(C)CCCN(C(=O)OC(C)(C)C)N(CC1CCCC1)c1nc(C#N)nc2c1ncn2CCCN(C)C` [Example 16, 1,1-dimethylethyl 2-{2-cyano-9-[3-(dimethylamino)propyl]-9H-purin-6-yl}-2-(cyclopentylmethyl)-1-[3-(dimethylamino)propyl]hydrazinecarboxylate trifluoroacetate], the pIC50 is 7.82 to 8.60 in experiment [1], 7.82 to 8.60 on Falcipain-2 and 6.60 to 6.82 at Falcipain-3.

Turning to `CN(C)CCCn1cnc2c(N(NC(=O)c3ccc(CN4CCN(C)CC4)cc3)C3CCCC3)nc(C#N)nc21` [Example 17, N′-{2-cyano-9-[3-(dimethylamino)propyl]-9H-purin-6-yl}-N′-cyclo pentyl-4-[(4-methyl-1-piperazinyl)methyl]benzohydrazide trifluoroacetate], the negative logarithm of the IC50 (pIC50) in experiment [1] is 6.82 to 7.82; on Falcipain-2 it was 8.60 to 9.00; at Falcipain-3 it was 6.40 to 6.60.

Turning to `CN1CCC(N2CCN(Cc3ccc(C(=O)NN(CC4CCCC4)c4nc(C#N)nc5c4ncn5C)cc3)CC2)CC1` [Example 18, N′-(2-cyano-9-methyl-9H-purin-6-yl)-N′-(cyclopentylmethyl)-4-({[4-(1-methyl-4-piperidinyl)-1-piperazinyl]methyl}benzohydrazide trifluoroacetate], the figures for the pIC50 (in experiment [1]; on Falcipain-2; at Falcipain-3) were 6.82 to 7.82, 7.82 to 8.60 and 6.82 to 7.82, respectively.

In the case of `CN(C)CCCn1cnc2c(N(NC(=O)OC(C)(C)C)C3CCOCC3)nc(C#N)nc21` [Example 19, 1,1-dimethylethyl 2-{2-cyano-9-[3-(dimethylamino)propyl]-9H-purin-6-yl}-2-(tetrahydro-2H-pyran-4-yl)hydrazinecarboxylate trifluoroacetate], the pIC50 in experiment [1] was 6.82 to 7.82; on Falcipain-2 it was 7.82 to 8.60; at Falcipain-3, 6.82 to 7.82.

For the compound `CC(=O)N1CCC(N(NC(=O)OC(C)(C)C)c2nc(C#N)nc3c2ncn3C)CC1` [Example 20, 1,1-dimethylethyl-2-(1-acetyl-4-piperidinyl)-2-(2-cyano-9-methyl-9H-purin-6-yl)hydrazinecarboxylate], the negative logarithm of the IC50 (pIC50) is 6.60 to 6.82 in experiment [1], 8.60 to 9.00 on Falcipain-2 and 6.60 to 6.82 at Falcipain-3.

In the case of `CC(C)(C)OC(=O)NN(CC1CCCC1)c1nc(C#N)nc2c1ncn2CCN1C(=O)c2ccccc2C1=O` [Example 21, 1,1-dimethylethyl-2-{2-cyano-9-[2-(1,3-dioxo-1,3-dihydro-2H-isoindol-2-yl)ethyl]-9H-purin-6-yl}-2-(cyclopentylmethyl)hydrazinecarboxylate], the pIC50 in experiment [1] was 6.40 to 6.60; at Falcipain-2, 6.82 to 7.82; at Falcipain-3, 6.40 to 6.60.

Regarding `CC(C)CN(NC(=O)c1ccc(CN2CCN(C)CC2)cc1)c1nc(C#N)nc2c1ncn2C` [Example 22, N′-(2-cyano-9-methyl-9H-purin-6-yl)-4-[(4-methyl-1-piperazinyl)methyl]-N′-(2-methylpropyl)benzohydrazide], the pIC50 in experiment [1] is 6.00 to 6.40; at Falcipain-2, 6.82 to 7.82; on Falcipain-3, 6.40 to 6.60.

Turning to `CN1CCN(Cc2ccc(C(=O)NN(CC3CCCC3)c3nc(C#N)nc4c3ncn4C)cc2)CC1` [Example 23, N′-(2-cyano-9-methyl-9H-purin-6-yl)-N′-(cyclopentylmethyl)-4-[(4-methyl-1-piperazinyl)methyl]benzohydrazide trifluoroacetate], the pIC50 in experiment [1] was 6.00 to 6.40; at Falcipain-2 it was 7.82 to 8.60; on Falcipain-3, 6.82 to 7.82.

On to `CN1CCN(Cc2cccc(C(=O)NN(c3nc(C#N)nc4c3ncn4C)C3CCCC3)n2)CC1` [Example 26, N′-(2-cyano-9-methyl-9H-purin-6-yl)-N′-cyclopentyl-6-[(4-methyl-1-piperazinyl)methyl]-2-pyridinecarbohydrazide trifluoroacetate], for which the pIC50 in experiment [1] was 6.40 to 6.60; at Falcipain-2 it was 7.82 to 8.60; on Falcipain-3, 6.60 to 6.82.

For `CN1CCN(Cc2ccc(-c3cncc(C(=O)NN(c4nc(C#N)nc5c4ncn5C)C4CCCC4)c3)cc2)CC1` [Example 27, N′-(2-Cyano-9-methyl-9H-purin-6-yl)-N′-cyclopentyl-5-{4-[(4-methyl-1-piperazinyl)methyl]phenyl}-3-pyridinecarbohydrazide trifluoroacetate], the pIC50 was 6.82 to 7.82 in experiment [1], no less than 9.00 on Falcipain-2 and 6.82 to 7.82 at Falcipain-3.

Take `CN1CCN(Cc2ccc(-c3cccc(C(=O)NN(c4nc(C#N)nc5c4ncn5C)C4CCCC4)n3)cc2)CC1` [Example 28, N′-(2-cyano-9-methyl-9H-purin-6-yl)-N′-cyclopentyl-6-{4-[(4-methyl-1-piperazinyl)methyl]phenyl}-2-pyridinecarbohydrazide trifluoroacetate]: the values for the negative-log IC50 (pIC50) (in experiment [1]; on Falcipain-2; on Falcipain-3) were 6.82 to 7.82, 7.82 to 8.60 and 6.82 to 7.82, respectively.

As for `CN1CCN(C(=O)n2cnc3c(N(NC(=O)OC(C)(C)C)C4CCCC4)nc(C#N)nc32)CC1` [Example 29, 1,1-dimethylethyl 2-{2-cyano-9-[(4-methyl-1-piperazinyl)carbonyl]-9H-purin-6-yl}-2-cyclopentylhydrazinecarboxylate], the results for the pIC50 (in experiment [1]; at Falcipain-2; at Falcipain-3) were 6.00 to 6.40, no less than 9.00 and 7.82 to 8.60, respectively.

Consider `CN1CCN(Cc2ccc(C(=O)NN(c3nc(C#N)nc4[nH]cnc34)C3CCCCC3)cc2)CC1` [Example 30, N′-(2-cyano-1H-purin-6-yl)-N′-cyclohexyl-4-[(4-methyl-1-piperazinyl)methyl]benzohydrazide trifluoroacetate], for which the pIC50 in experiment [1] is 6.00 to 6.40; on Falcipain-2, 7.82 to 8.60; at Falcipain-3, 6.82 to 7.82.

Consider `CN(C)CCCn1cnc2c(N(NC(=O)c3ccc(CN4CCN(C)CC4)cc3)C3CCCCC3)nc(C#N)nc21` [Example 31, N′-{2-cyano-9-[3-(dimethylamino)propyl]-9H-purin-6-yl}-N′-cyclo hexyl-4-[(4-methyl-1-piperazinyl)methyl]benzohydrazide trifluoroacetate], for which the pIC50 was 6.82 to 7.82 in experiment [1], 7.82 to 8.60 at Falcipain-2 and 6.82 to 7.82 on Falcipain-3.

On to `CN1CCN(c2ccc(C(=O)NN(c3nc(C#N)nc4c3ncn4C)C3CCCC3)cc2)CC1` [Example 32, N′-(2-cyano-9-methyl-9H-purin-6-yl)-N′-cyclopentyl-4-(4-methyl-1-piperazinyl)benzohydrazide trifluoroacetate], for which the pIC50 in experiment [1] is 6.40 to 6.60; at Falcipain-2, 7.82 to 8.60; on Falcipain-3, 6.82 to 7.82.

Consider `CN1CCN(c2cccc(C(=O)NN(c3nc(C#N)nc4c3ncn4C)C3CCCC3)c2)CC1` [Example 33, N′-(2-cyano-9-methyl-9H-purin-6-yl)-N′-cyclopentyl-3-(4-methyl-1-piperazinyl)benzohydrazide trifluoroacetate], for which the results for the pIC50 (in experiment [1]; at Falcipain-2; on Falcipain-3) were 6.82 to 7.82, 8.60 to 9.00 and 6.82 to 7.82, respectively.

A word on the pIC50: it is the IC50 on a negative log10 scale, so that one unit is a factor of ten.
